Test results reported in patent publication US20030236218A1, “Aryl phosphate derivatives of d4T with selective activity against adenovirus and HIV” (priority 2002, published 2003).
Values after ≈ are worked out from the molar mass of the structure shown. Where two headings read alike, the source gives them in different places.

What was measured:
Stability in whole blood = format: in vitro ADME
Description: The whole blood samples were placed in a 37° C. water bath, while plasma samples were stored at −20° C. At a predetermined time, an aliquot (100 μl) of spiked whole blood or plasma was extracted by adding 400 μl of acetone to induce precipitation of proteins, as described above.

[1] = Stability in simulated intestinal fluid; format: in vitro ADME; details: 100 μM, 37° C.
Description: The spiked fluids were then placed in a 37° C. water bath. At a predetermined time, 100 μI aliquots of the spiked gastric or intestinal fluid were extracted by adding 400 μl of acetone as discussed above.

[2] = Octanol/water partition coefficient, shake flask method; format: physicochemical; details: 4 hours at room temperature, read-out: Oct/Water (log P)
Description: HPLC purification was achieved using a reverse-phase Lichrospher column (250×4 mm, Hewlett-Packard, RP-18, Cat. #79925) and an isocratic flow (1 ml/minute) consisting of water (70%) and acetonitrile (30%). Melting points were determined using a Melt John's apparatus and are uncorrected. Column chromatography was performed using silica gel obtained from Baker Company. The octanol/water partition coefficient was determined by the shake flask method. The phosphoramidate analogs were added to 2 ml of water and 2 ml of octanol in a glass vial. The mixture was shaken for 4 hours at room temperature. The two phases were carefully separated and filtered through a Millipore filter and analyzed by HPLC. The partition coefficient was calculated using the ratio of the area under the curve for octanol and water, respectively.

Solubility = format: physicochemical; details: read-out: Solubility
[3] = Hydrolysis rate in alkali conditions; format: physicochemical
Description: Statistical analysis. Each drug was tested at 6-7 different concentrations ranging from 0.0001 μM to 100 μM. Each assay was set up in triplicate wells and repeated 1-3 times. An IC50 value was calculated from each set of triplicate wells using nonlinear regression modeling of the exponential form of the linearized equation (Statview, SAS Institute, Inc., Cary, N.C.). Hydrolysis rates were determined by fitting single exponential decay equations to the disappearance of the compound in alkali conditions (all R^2 values greater than 0.85). The IC50 values obtained were correlated to the log transformed hydrolysis rate constants by fitting a linear model (JMP Software, SAS Institute Inc., Cary, N.C.). P-values less than 0.05 were deemed significant.

[4] = tested on: herpes simplex virus (HSV) Type I strain HF; test: HSV-1 plaque formation assay in VERO cells; format: cell-based; details: Human alphaherpesvirus 1, HSV-1, Strain HF
Text: Virus stocks. The HIV-1 strain used in this study was HTLV-IIIB (Uckun et al., 1998 Antimicro. Agents and Chemother., 42:383-388). The non-HIV viruses included in the present study were the gancyclovir-sensitive cytomegalovirus (CMV) strain AD169 (ATCC VR-538); acyclovir-sensitive herpes simplex virus (HSV) Type I strain HF (ATCC VR-260); acyclovir-sensitive HSV Type II strain G (ATCC VR-734); adenovirus strain Type 5, strain adenoid 75 (ATCC VR-5); enterovirus strain, ECHO 30, strain Bastianni (ATCC VR-322); and respiratory syncytial virus (RSV), strain Long (ATCC VR-26).
(§1) Plaque formation assays. Plaque assays were used to examine the activity of the compounds against non-HIV viruses. The skin fibroblast cell line SF (ATCC CRL-2097) was used as a target for AD169, Adenovirus Type 5. […] cell line (ATCC CCL-81) was used as a target for HSV HF and G. The HEP-2 cell line (ATCC CCL-23) was used as a target for the RSV strain Long. These cell lines were cultured at 1×10^5 cells/well in 24-well (all but ECHO 30-infected SF) or 6-well (ECHO 30-infected SF) tissue culture plates with 0.9% methylcellulose or 0.4% SeaPlaque agarose semisolid support. […] Percent inhibition of plaque formation was calculated by comparing the plaque numbers from the test substance-treated infected cells with the plaque numbers from untreated infected cells (i.e., virus controls). The IC50 values were determined using the Statview statistics program (SAS Institute, Inc., Cary, N.C.).
Statistical analysis. […] An IC50 value was calculated from each set of triplicate wells using nonlinear regression modeling of the exponential form of the linearized equation (Statview, SAS Institute, Inc., Cary, N.C.). […]
The skin fibroblast cell line SF (ATCC CRL-2097) was used as a target for AD169, Adenovirus Type 5, and ECHO 30; the VERO cell line (ATCC CCL-81) was used as a target for HF and G; and the HEP-2 cell line (ATCC CCL-23) was used as target for the RSV strain Long. Results are expressed as the average IC50 values in μM. […]

skin fibroblasts = test: Cytotoxicity in skin fibroblasts (plaque assay); format: cell-based; details: ADV plaque formation assay
Description: as §1, with “support. Minimum Essential Medium (MEM) with Earle's salts (Gibco), L-glutamine, non-essential amino acids, 2% heat-inactivated fetal bovine serum, 1% penicillin/streptomycin, and 0.05% gentamicin served as the culture medium. The incubation times were 3 days for HF, G, ECHO 30, and Long; and 7 days for AD169 and Adenovirus Type 5.” for “support.”

[5] = Stability in plasma in the presence of selective esterase inhibitors; details: 250 μM

COC(=O)C(C)NP(=O)(OC[C@@H]1C=C[C@H](n2cc(C)c(=O)[nH]c2=O)O1)Oc1ccc(Br)cc1 (stereo partly drawn) [Compound 113, 5′-[4-Bromophenyl methoxylaninylphosphate]-2′, 3′-didehydro-3′-deoxy thymidine]
time to complete decomposition in whole blood (Stability in whole blood; 250 μM, 37° C.): ≤ 30 min | decomposed in whole blood (Stability in whole blood; 250 μM, 37° C., 5 minutes): 68% | decomposed in whole blood (Stability in whole blood; 250 μM, 37° C., 10 minutes): 87% | decomposed in whole blood (Stability in whole blood; 250 μM, 37° C., 15 minutes): 92% | stability in whole blood (in words) (Stability in whole blood; spiked whole blood 37° C., 250 μM compound 113, 100 μM Ala-d4T-MP (followed for 1 day)): very unstable | stability in intestinal fluid (in words) [1]: not stable | decomposed in intestinal fluid ([1]; within 2 hours): approximately 94% | logP at 4 h [2]: 1.21 | Solubility (Solubility): 3 mg/mL (≈ 5.51 mM) | Hydrolysis Rate [3]: 0.0210 min⁻¹ | IC50 [4]: > 100 µM | cytotoxicity (in words) (skin fibroblasts): without any evidence of cytotoxicity even at 100 μM | mean percent hydrolysis in plasma ([5]; EDTA (1 mM), arylesterase, 5 min): 99% | mean percent hydrolysis in plasma ([5]; EDTA (1 mM), arylesterase, 10 min): 100% | mean percent hydrolysis in plasma ([5]; EDTA (1 mM), arylesterase, 15 min): 100% | mean percent hydrolysis in plasma ([5]; EDTA (1 mM), arylesterase, 30 min): 100% | mean percent hydrolysis in plasma ([5]; EDTA (1 mM), arylesterase, 60 min): 100% | mean percent hydrolysis in plasma ([5]; EDTA (1 mM), arylesterase, 120 min): 100% | mean percent hydrolysis in plasma ([5]; No inhibitor, 5 min): 95% | mean percent hydrolysis in plasma ([5]; No inhibitor, 10 min): 98% | mean percent hydrolysis in plasma ([5]; No inhibitor, 15 min): 99% | mean percent hydrolysis in plasma ([5]; No inhibitor, 30 min): 100% | mean percent hydrolysis in plasma ([5]; No inhibitor, 60 min): 100% | mean percent hydrolysis in plasma ([5]; No inhibitor, 120 min): 100% | mean percent hydrolysis in plasma ([5]; Paraoxon (0.1 mM), cholinesterase & carboxylesterase, 5 min): 0% | mean percent hydrolysis in plasma ([5]; Paraoxon (0.1 mM), cholinesterase & carboxylesterase, 10 min): 2% | mean percent hydrolysis in plasma ([5]; Paraoxon (0.1 mM), cholinesterase & carboxylesterase, 15 min): 2% | mean percent hydrolysis in plasma ([5]; Paraoxon (0.1 mM), cholinesterase & carboxylesterase, 30 min): 2% | mean percent hydrolysis in plasma ([5]; Paraoxon (0.1 mM), cholinesterase & carboxylesterase, 60 min): 3% | mean percent hydrolysis in plasma ([5]; Paraoxon (0.1 mM), cholinesterase & carboxylesterase, 120 min): 24% | mean percent hydrolysis in plasma ([5]; Physostigmine (0.1 mM), cholinesterase, 5 min): 43% | mean percent hydrolysis in plasma ([5]; Physostigmine (0.1 mM), cholinesterase, 10 min): 65% | mean percent hydrolysis in plasma ([5]; Physostigmine (0.1 mM), cholinesterase, 15 min): 76% | mean percent hydrolysis in plasma ([5]; Physostigmine (0.1 mM), cholinesterase, 30 min): 89% | mean percent hydrolysis in plasma ([5]; Physostigmine (0.1 mM), cholinesterase, 60 min): 100% | mean percent hydrolysis in plasma ([5]; Physostigmine (0.1 mM), cholinesterase, 120 min): 100%

Cc1cn([C@H]2C=C[C@@H](CO)O2)c(=O)[nH]c1=O [d4T, 2′, 3′-Didehydro-3′-deoxy thymidine, reference compound]
logP at 4 h ([2]; octanol/water): -0.59 | Solubility (Solubility): 83 mg/mL (≈ 370 mM) | IC50 [4]: > 100 µM
